# Assay results reported in patent EP2397149A1 (Hil-Invent Ges.M.B.H., priority 2010, dated 2011).
# Read-outs that look alike come from different tables or passages of the source. Starred links: 1 amine or outer side, 2 acyl side, 3 side chain; linkers in the order of their positions; H or OH if unused. Positions of bridges follow the written chain, without caps; N, C: chain ends. Non-standard residues stand in square brackets, D forms with d. Residues, ends and D or L forms follow the SMILES beside them. Chains are numbered I, II in the order given. Actinocin(9to1) = Cc1c2oc3c(C)ccc(C(=O)[*:1])c3nc-2c(C(=O)[*:2])c(N)c1=O; NMeV = CN[C@H](C(=O)O)C(C)C; Sar = CNCC(=O)O
# Legend:
# [1] = test system: B-CLL cells of patients with no p53 aberrations; test: Influence of the p53 inhibitor pifithrin-alpha on drug susceptibility (flow cytometry, AnnexinV/7-AAD); format: cell-based, human
# Description: (§1) Viability was measured using flow-cytometry (AnnexinV/7-AAD,-/-). […] The length of the box corresponds to the interquartile range (IQR) and is the difference between the 75th and 25th percentiles. The horizontal line in the box is the median. […] Viability of B-CLL cells was assessed using a flow-cytometer (Annex-inV/7-AAD -/-). The length of the box corresponds to the interquartile range (IQR) and is the difference between the 75th and 25th percentiles. The horizontal line in the box is the median. […] Day zero is the day of engraftment with 3x10^6 lymphocytes derived from TCL1 transgenic mice with overt leukemia. […] Blood samples were collected from the tail vein of the respective animal and whole blood was analysed for CD5/CD19 positive cells using a flow-cytometer. […] Dashed line is 0.04 mg/kg and black line is 0.05 mg/kg daily for two weeks.
# B-CLL cells of patients with no p53 aberrations were treated with 160 nM actinomycin w or w/o 30 µM pifithrin-alpha.
# [2] = test system: B-CLL cells; test: IC50 determination (XTT dye, 48 h); format: cell-based, human
# Description: 1.5 x 10^6 B-CLL cells and 0.4 x 10^6 CEM-C7H2 cells per well were incubated with different concentrations of the respective substance (0,2, 0,5, 1, 2, 5, 10, 20 µM) and incubated for 48 h. After this XTT-dye solution was added as described above and absorption was measured at 450 nm with 655 nm as reference wavelength. Concentrations that led to a 50 % metabolism reduction were monitored as IC50 value.
# Finally, the substances were tested for their toxicity in cell lines from different parts of the human body such as liver (HepG2), kidney (HEK-293), lung (SHP-77), skin keratinocytes (WS-1) and in human umbilical vein endothelial cells from 3 different donors. […] For these substances the mean IC50 (48h) in 4 B-CLL cells samples from 4 different donors was determined and the substances were numbered beginning with the lowest IC50 in B-CLL cells.
# [3] = test system: engrafted wildtype (C57BL/6) mice (CD5+/CD19+ cells); test: Treatment study 03: head to head comparison of actinomycin D and fludarabine; format: in vivo; conditions: for 50 % survival time after start of treatment / tumour load reduction: actinomycin D 0.06 mg/kg daily for 14 days, fludarabine 34 mg/kg for 5 days; for tumour load reduction: day 22 after treatment start, vs untreated mice
# Description: as §1
# (§2) The original Eµ-TCL1a transgenic mice which were generously provided by C. Croce (Ohio) have been back-crossed for > 9 generations to C57BL/6 mice. Mice were killed at stated ages, or when signs of illness developed, and samples for histology, flow cytometry, and miRNA isolation were collected. The tumor load in all lymphoid organs was assessed by flow cytometry following staining for the surface markers CD19, CD5, and IgM. Approval from the Austrian Animal Ethics committee was obtained prior to performing the experiments. Engrafted mice were produced by injecting 3 x 10^6 lymphocytes of a leukemic Eµ-TCL1a transgenic mouse into 30 Black 6 mice from Charles River Laboratories, Sulzfeld, Germany.
# At day 22 after treatment start tumour load was assessed compared to that of the tumour load of untreated mice.
# [4] = test system: B-CLL cells bearing the chromosomal aberration del(17p)13; test: Viability / apoptosis of del(17p)13 B-CLL cells (flow cytometry, AnnexinV/7-AAD); format: cell-based, human; conditions: for viability reduction: 160 nM
# Description: as §1
# The supplied substances were solved in 100 µl medium at 37°C 90 min on a rotation shaker and transferred to a 96-well plated. Then 100µl medium containing 1.5 x 10^6 B-CLL cells was added. Final concentration of the substances was 20 µM. After a incubation time of 48 h 50 µl XTT-dye was added and absorption measured as above. […] Only substances that reduced the cell metabolism/dye development > 50 % were counted. The reason for this higher cut off value is the low proliferative activity of B-CLL cells who are mainly in Go arrest. Positive substances were double checked with Annex-inV/7-AAD apoptosis/necrosis staining in CD19+/CD5+ positive cells on a flow cytometer.
# [5] = test system: colon cancer cell line HCT116; test: Sensitivity of isogenic HCT116 with or without p53 deletion; format: cell-based
# [6] = test system: engrafted B-CLL mice (CD5/CD19 cells)
# Description: as §2
# First a treatment study included 10 mice.
# To assess tumour load development after treatment blood samples were collected from the tail vein (Fig. 4).
# [7] = test system: engrafted CLL mice (CD5/CD19 cells); test: Treatment study 02: reduced actinomycin D concentrations in murine B-CLL model; format: in vivo
# Description: as §2
# In example 1 a treatment schedule of 0.06 mg/kg daily for two weeks was used. […] To assess the tumour load blood samples were consecutively taken from the tail vein.
smiles,measurement,setting,value
CN1CC[C@H](c2c(O)cc(O)c3c(=O)cc(-c4ccccc4Cl)oc23)[C@H](O)C1 [flavopiridol],synergism with pifithrin-alpha,"[1]; with or without 30 µM pifithrin-alpha, 48 h, 160 nM actinomycin (text; Fig. 2: 20 nM), 50 nM flavopiridol, 10 µM fludarabine",synergistic with pifithrin-alpha
Nc1nc(F)nc2c1ncn2[C@@H]1O[C@H](CO)[C@@H](O)[C@@H]1O [fludarabine],IC50,"[2]; Homo sapiens, B-CLL, read-out: double IC50 determined for fludarabine, printed as the double IC50, unclear whether 3µM is the IC50 or its double",3000 nM
same,50 % survival time after start of treatment,[3],47 days
same,tumour load reduction,[3],20%
Cc1ccc(C(=O)Cn2c3c(sc2=N)CCCC3)cc1 [pifithrin-alpha],effect of pifithrin-alpha alone on viability of CLL cells,"[1]; 30 µM, alone",no effect on viability
"Cc1c2oc3c(C)ccc(C(=O)N[C@@H]4C(=O)N[C@H](C(C)C)C(=O)N5CCC[C@H]5C(=O)N(C)CC(=O)N(C)[C@@H](C(C)C)C(=O)O[C@@H]4C)c3nc-2c(C(=O)N[C@@H]2C(=O)N[C@H](C(C)C)C(=O)N3CCC[C@H]3C(=O)N(C)CC(=O)N(C)[C@@H](C(C)C)C(=O)O[C@@H]2C)c(N)c1=O [actinomycin D] (I: T[dV]P[Sar][NMeV] / II: T[dV]P[Sar][NMeV]; ester I:1-I:C, II:1-II:C; linker I:N-II:N via Actinocin(9to1))",IC50,"[2]; 4 B-CLL cells samples from 4 different donors, 48 h, in vitro, read-out: mean IC50 (48h)",80 nM
same,viability (Fig. 1),"[4]; 20 nM, 48 h, 4 p53 deleted, fludarabine resistant B-CLL patients, p < 0.001",significant viability reduction
same,apoptosis induced in % of B-CLL cells,"[4]; 20 nM, within 48 h, del(17p)13 B-CLL cells (Fig. 1)",> 80%
same,viability reduction,[4]; del(17p)13 B-CLL samples derived from peripheral blood,> 45%
same,viability reduction,[4]; one del(17p)13 sample derived from the bone marrow,38%
same,apoptosis induction,"[4]; 20 µM, three B-CLL samples of patients with del(17p)13",able to induce apoptosis in all three B-CLL cells samples
same,effect of p53 deletion on actinomycin D susceptibility,[5],no effect
same,survival difference to the mock treated animals (Fig. 3),"[6]; 0,06 mg/kg daily for two weeks vs PBS",highly significant
same,time after the initial therapy until retreatment,[6]; CD5/CD19 counts back at the initial value at day 135,85 days
same,CD5/CD19 count after treatment,"[6]; treatment at day 50, three surviving animals, tail vein blood",A reduction of the CD5/CD19 count can be observed in all three animals
same,tumour cells after treatment,"[7]; 0.05 mg/kg or 0.04 mg/kg daily for two weeks, two mice each, start 47 days after engraftment",severe reduction of tumour cells
same,time until tumour load increased to the initial values after the first treatment,"[7]; 0.05 or 0.04 mg/kg daily for two weeks, after first treatment",46 days
same,time until CD5/CD19 counts increased again after the second treatment,"[7]; 0.05 or 0.04 mg/kg daily for two weeks, after retreatment",44 days
same,"tumour load (CD5+/CD19+ cell count), Fig. 6",[3]; 22 days after treatment start,highly significant tumour load reduction
same,50 % survival time after start of treatment,[3],103 days
same,tumour load reduction,[3],more than 80%
